# From article PMC11435058, “Synthesis of New Thiazole-Privileged Chalcones as Tubulin Polymerization Inhibitors with Potential Anticancer Activities” (Pharmaceuticals, 2024)
# How the values were obtained:
# Assay in all cases: NCI-60 anticancer screen (SRB; single dose and five doses)
# MOLT-4 = conditions: Homo sapiens; for activity at 10 µM: MOLT-4, 48 h, read-out: Growth Percentage
# SF-295 = conditions: Homo sapiens; for activity at 10 µM: SF-295, 48 h, read-out: Growth Percentage
# SK-MEL-2 = conditions: Homo sapiens; for activity at 10 µM: SK-MEL-2, 48 h, read-out: Growth Percentage
# MALME-3M = conditions: Homo sapiens; for activity at 10 µM: 48 h, read-out: Growth Percentage
# RPMI-8226 = conditions: Homo sapiens; for activity at 10 µM: RPMI-8226, 48 h, read-out: Growth Percentage
# OVCAR-4 = conditions: Homo sapiens; for activity at 10 µM: OVCAR-4, 48 h, read-out: Growth Percentage
# UACC-257 = conditions: Homo sapiens; for activity at 10 µM: UACC-257, 48 h, read-out: Growth Percentage
# HCC-2998 = conditions: for activity at 10 µM: HCC 2998, 48 h, read-out: Growth Percentage
# M14 = conditions: Homo sapiens; for activity at 10 µM: M14, 48 h, read-out: Growth Percentage
# 786-0 = conditions: Homo sapiens; for activity at 10 µM: 786-0, 48 h, read-out: Growth Percentage
# NCI-H23 = conditions: Homo sapiens; for activity at 10 µM: NCI-H23, 48 h, read-out: Growth Percentage
# U251 = conditions: Homo sapiens; for activity at 10 µM: U-251, 48 h, read-out: Growth Percentage
# TK-10 = conditions: Homo sapiens
# HCT-15 = conditions: Homo sapiens; for activity at 10 µM: HCT-15, 48 h, read-out: Growth Percentage
# BT-549 = conditions: Homo sapiens; for activity at 10 µM: BT-549, 48 h, read-out: Growth Percentage
# OVCAR-8 = conditions: Homo sapiens; for activity at 10 µM: OVCAR-8, 48 h, read-out: Growth Percentage
# T-47D = conditions: Homo sapiens, T47D; for activity at 10 µM: 48 h, read-out: Growth Percentage
# LOX IMVI = conditions: Homo sapiens; for activity at 10 µM: 48 h, read-out: Growth Percentage
# NCI-H322M = conditions: Homo sapiens; for activity at 10 µM: 48 h, read-out: Growth Percentage
# HOP-62 = conditions: Homo sapiens; for activity at 10 µM: HOP-62, 48 h, read-out: Growth Percentage
# COLO 205 = conditions: Homo sapiens; for activity at 10 µM: COLO 205, 48 h, read-out: Growth Percentage
# NCI-H226 = conditions: Homo sapiens; for activity at 10 µM: NCI-H226, 48 h, read-out: Growth Percentage
# MDA-MB-468 = format: cell-based, human; conditions: for activity at 10 µM: 48 h, MDA-MB-468, dose of 10 μM, read-out: Growth Percentage
# Procedure, shortened: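 NCI panel of about 60 human tumor cell lines treated with compound at a single concentration (10μM) for 48 h. Growth measured by SRB protein staining and expressed as percent growth of treated versus untreated control cells.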
# UACC-62 = conditions: Homo sapiens; for activity at 10 µM: UACC-62, 48 h, read-out: Growth Percentage
# MCF7 = conditions: Homo sapiens; for activity at 10 µM: MCF7, 48 h, read-out: Growth Percentage
structure (smiles),measurement,setting,value
"Cc1[nH]c(=S)sc1C(=O)/C=C/c1cccc([N+](=O)[O-])c1 [2h, (E)-1-(4-Methyl-2-Thioxo-2,3-Dihydrothiazol-5-yl)-3-(3-Nitrophenyl)Prop-2-En-1-One]",GI50,MOLT-4; MOLT-4,3.47 µM
same,IC50,MOLT-4; MOLT-4,5.01 µM
same,activity at 10 µM,MOLT-4,13.3%
same,CC50,"MOLT-4; MOLT-4, read-out: LC50",> 100 µM
same,IC (TGI),"MOLT-4; MOLT-4, read-out: TGI",30.2 µM
same,GI50,SF-295; SF-295,3.63 µM
same,IC50,SF-295; SF-295,8.71 µM
same,activity at 10 µM,SF-295,4.14%
same,CC50,"SF-295; SF-295, read-out: LC50",39.8 µM
same,IC (TGI),"SF-295; SF-295, read-out: TGI",14.8 µM
same,GI50,SK-MEL-2; SK-MEL-2,12.6 µM
same,IC50,SK-MEL-2; SK-MEL-2,26.9 µM
same,activity at 10 µM,SK-MEL-2,16.9%
same,CC50,"SK-MEL-2; SK-MEL-2, read-out: LC50",53.7 µM
same,IC (TGI),"SK-MEL-2; SK-MEL-2, read-out: TGI",26.3 µM
same,GI50,MALME-3M,12.3 µM
same,IC50,MALME-3M,24.6 µM
same,activity at 10 µM,MALME-3M,-42.9%
same,CC50,MALME-3M; read-out: LC50,55 µM
same,IC (TGI),MALME-3M; read-out: TGI,26.3 µM
same,GI50,RPMI-8226; RPMI-8226,2.04 µM
same,activity at 10 µM,RPMI-8226,9.39%
same,IC50,"RPMI-8226; RPMI-8226, five-dose, Leukemia RPMI-8226",3.72 µM
same,CC50,"RPMI-8226; RPMI-8226, read-out: LC50",> 100 µM
same,IC (TGI),"RPMI-8226; RPMI-8226, read-out: TGI",6.31 µM
same,GI50,OVCAR-4; OVCAR-4,11 µM
same,IC50,OVCAR-4; OVCAR-4,20.4 µM
same,activity at 10 µM,OVCAR-4,13.1%
same,CC50,"OVCAR-4; OVCAR-4, read-out: LC50",51.3 µM
same,IC (TGI),"OVCAR-4; OVCAR-4, read-out: TGI",24 µM
same,GI50,UACC-257; UACC-257,3.39 µM
same,IC50,UACC-257; UACC-257,10 µM
same,activity at 10 µM,UACC-257,9.4%
same,CC50,"UACC-257; UACC-257, read-out: LC50",38 µM
same,IC (TGI),"UACC-257; UACC-257, read-out: TGI",13.5 µM
same,GI50,"HCC-2998; Homo sapiens, HCC 2998",2 µM
same,IC50,"HCC-2998; Homo sapiens, HCC 2998",3.63 µM
same,activity at 10 µM,HCC-2998; Homo sapiens,-86.7%
same,CC50,"HCC-2998; Homo sapiens, HCC 2998, read-out: LC50",11.8 µM
same,TGI,"HCC-2998; five-dose, Colon Cancer HCC-2998",4.57 µM
same,GI50,M14; M14,7.08 µM
same,IC50,M14; M14,11.8 µM
same,activity at 10 µM,M14,1.86%
same,CC50,"M14; M14, read-out: LC50",83.2 µM
same,IC (TGI),"M14; M14, read-out: TGI",25.7 µM
same,GI50,786-0; 786-0,3.98 µM
same,IC50,786-0; 786-0,6.31 µM
same,activity at 10 µM,786-0,-10.8%
same,CC50,"786-0; 786-0, read-out: LC50",50.1 µM
same,IC (TGI),"786-0; 786-0, read-out: TGI",15.8 µM
same,GI50,NCI-H23; NCI-H23,5.37 µM
same,IC50,NCI-H23; NCI-H23,10 µM
same,activity at 10 µM,NCI-H23,-72.8%
same,CC50,"NCI-H23; NCI-H23, read-out: LC50",45.7 µM
same,IC (TGI),"NCI-H23; NCI-H23, read-out: TGI",18.2 µM
same,GI50,U251; U-251,1.74 µM
same,IC50,U251; U-251,3.09 µM
same,activity at 10 µM,U251,-76%
same,CC50,"U251; U-251, read-out: LC50",5.89 µM
same,IC (TGI),"U251; U-251, read-out: TGI",3.24 µM
same,GI50,TK-10; TK-10,11.2 µM
same,IC50,TK-10; TK-10,22.9 µM
same,CC50,"TK-10; TK-10, read-out: LC50",50.1 µM
same,IC (TGI),"TK-10; TK-10, read-out: TGI",23.4 µM
same,GI50,HCT-15; HCT-15,2.14 µM
same,IC50,HCT-15; HCT-15,3.47 µM
same,activity at 10 µM,HCT-15,-36.4%
same,CC50,"HCT-15; HCT-15, read-out: LC50",31.6 µM
same,IC (TGI),"HCT-15; HCT-15, read-out: TGI",7.76 µM
same,GI50,BT-549; BT-549,3.8 µM
same,IC50,BT-549; BT-549,13.5 µM
same,activity at 10 µM,BT-549,-14%
same,CC50,"BT-549; BT-549, read-out: LC50",43.6 µM
same,IC (TGI),"BT-549; BT-549, read-out: TGI",14.8 µM
same,GI50,OVCAR-8; OVCAR-8,3.31 µM
same,IC50,OVCAR-8; OVCAR-8,4.57 µM
same,activity at 10 µM,OVCAR-8,13.4%
same,CC50,"OVCAR-8; OVCAR-8, read-out: LC50",38 µM
same,IC (TGI),"OVCAR-8; OVCAR-8, read-out: TGI",11.8 µM
same,GI50,T-47D,2 µM
same,IC50,T-47D,4.9 µM
same,activity at 10 µM,T-47D,-56.6%
same,CC50,T-47D; read-out: LC50,66.1 µM
same,IC (TGI),T-47D; read-out: TGI,7.08 µM
same,GI50,LOX IMVI,1.58 µM
same,IC50,LOX IMVI,2.75 µM
same,activity at 10 µM,LOX IMVI,-99%
same,CC50,LOX IMVI; read-out: LC50,6.03 µM
same,IC (TGI),LOX IMVI; read-out: TGI,3.09 µM
same,GI50,NCI-H322M,8.71 µM
same,IC50,NCI-H322M,17.4 µM
same,activity at 10 µM,NCI-H322M,28.9%
same,CC50,NCI-H322M; read-out: LC50,50.1 µM
same,IC (TGI),NCI-H322M; read-out: TGI,21.9 µM
same,GI50,HOP-62; HOP-62,3.98 µM
same,IC50,HOP-62; HOP-62,6.76 µM
same,activity at 10 µM,HOP-62,0.68%
same,CC50,"HOP-62; HOP-62, read-out: LC50",40.7 µM
same,IC (TGI),"HOP-62; HOP-62, read-out: TGI",12.3 µM
same,GI50,COLO 205; COLO 205,5.75 µM
same,IC50,COLO 205; COLO 205,8.71 µM
same,activity at 10 µM,COLO 205,-24.9%
same,CC50,"COLO 205; COLO 205, read-out: LC50",51.3 µM
same,IC (TGI),"COLO 205; COLO 205, read-out: TGI",19.1 µM
same,GI50,NCI-H226; NCI-H226,11.2 µM
same,IC50,NCI-H226; NCI-H226,33.1 µM
same,activity at 10 µM,NCI-H226,-41.9%
same,CC50,"NCI-H226; NCI-H226, read-out: LC50",> 100 µM
same,IC (TGI),"NCI-H226; NCI-H226, read-out: TGI",38 µM
same,activity at 10 µM,MDA-MB-468; Homo sapiens,-82.9%
same,IC50,"MDA-MB-468; Homo sapiens, MDA-MB-468, MDA-MB-468, Breast Cancer, five dose",7.76 µM
same,GI50,"MDA-MB-468; Homo sapiens, MDA-MB-468, Breast Cancer, five dose",2.95 µM
same,CC50,"MDA-MB-468; Homo sapiens, MDA-MB-468, Breast Cancer, five dose, read-out: LC50 (the source's name)",40.7 µM
same,TGI,"MDA-MB-468; MDA-MB-468, Breast Cancer, five dose",10.72 µM
same,GI50,UACC-62; UACC-62,3.55 µM
same,IC50,UACC-62; UACC-62,7.94 µM
same,activity at 10 µM,UACC-62,-56.7%
same,CC50,"UACC-62; UACC-62, read-out: LC50",41.7 µM
same,IC (TGI),"UACC-62; UACC-62, read-out: TGI",15.8 µM
same,GI50,MCF7; MCF7,2.75 µM
same,IC50,MCF7; MCF7,6.31 µM
same,activity at 10 µM,MCF7,-45.4%
same,CC50,"MCF7; MCF7, read-out: LC50",38 µM
same,IC (TGI),"MCF7; MCF7, read-out: TGI",9.77 µM
"Cc1[nH]c(=S)sc1C(=O)/C=C/c1ccc(N(C)C)cc1 [2k, (E)-3-(4-(Dimethylamino)Phenyl)-1-(4-Methyl-2-Thioxo-2,3-Dihydrothiazol-5-yl)Prop-2-En-1-One]",activity at 10 µM,MOLT-4,62.1%
same,activity at 10 µM,SF-295,79.8%
same,activity at 10 µM,SK-MEL-2,88.9%
same,activity at 10 µM,MALME-3M,79.4%
same,activity at 10 µM,RPMI-8226,41.5%
same,activity at 10 µM,OVCAR-4,51.2%
same,activity at 10 µM,UACC-257,64.1%
same,activity at 10 µM,HCC-2998; Homo sapiens,95.3%
same,activity at 10 µM,M14,83.2%
same,activity at 10 µM,786-0,91.7%
same,activity at 10 µM,NCI-H23,71.1%
same,activity at 10 µM,U251,67.1%
same,activity at 10 µM,"TK-10; TK-10, 48 h, read-out: Growth Percentage",86.8%
same,activity at 10 µM,HCT-15,64.4%
same,activity at 10 µM,BT-549,82.2%
same,activity at 10 µM,OVCAR-8,83.4%
same,activity at 10 µM,T-47D,32.4%
same,activity at 10 µM,LOX IMVI,60.2%
same,activity at 10 µM,NCI-H322M,81.1%
same,activity at 10 µM,HOP-62,86.2%
same,activity at 10 µM,COLO 205,115%
same,activity at 10 µM,NCI-H226,88.3%
same,activity at 10 µM,MDA-MB-468; Homo sapiens,35.4%
same,activity at 10 µM,UACC-62,58.7%
same,activity at 10 µM,MCF7,60%
